We go through 24 compounds from patent US8268990B2, “Compounds” (AstraZeneca AB, priority 2007, dated 2012).

pEC50: −log10 of the molar value.

The test concerns the target T1, Recombinant human TLR7 (Homo sapiens, UniProt Q9NYK1).
T1 construct: expressed in transfected cells; host or cells: HEK293 cell line stably expressing the pNiFty2-SEAP reporter plasmid; TLR7 in vector pUNO, blasticidin selection
T1 sequence (Q9NYK1 27-1049): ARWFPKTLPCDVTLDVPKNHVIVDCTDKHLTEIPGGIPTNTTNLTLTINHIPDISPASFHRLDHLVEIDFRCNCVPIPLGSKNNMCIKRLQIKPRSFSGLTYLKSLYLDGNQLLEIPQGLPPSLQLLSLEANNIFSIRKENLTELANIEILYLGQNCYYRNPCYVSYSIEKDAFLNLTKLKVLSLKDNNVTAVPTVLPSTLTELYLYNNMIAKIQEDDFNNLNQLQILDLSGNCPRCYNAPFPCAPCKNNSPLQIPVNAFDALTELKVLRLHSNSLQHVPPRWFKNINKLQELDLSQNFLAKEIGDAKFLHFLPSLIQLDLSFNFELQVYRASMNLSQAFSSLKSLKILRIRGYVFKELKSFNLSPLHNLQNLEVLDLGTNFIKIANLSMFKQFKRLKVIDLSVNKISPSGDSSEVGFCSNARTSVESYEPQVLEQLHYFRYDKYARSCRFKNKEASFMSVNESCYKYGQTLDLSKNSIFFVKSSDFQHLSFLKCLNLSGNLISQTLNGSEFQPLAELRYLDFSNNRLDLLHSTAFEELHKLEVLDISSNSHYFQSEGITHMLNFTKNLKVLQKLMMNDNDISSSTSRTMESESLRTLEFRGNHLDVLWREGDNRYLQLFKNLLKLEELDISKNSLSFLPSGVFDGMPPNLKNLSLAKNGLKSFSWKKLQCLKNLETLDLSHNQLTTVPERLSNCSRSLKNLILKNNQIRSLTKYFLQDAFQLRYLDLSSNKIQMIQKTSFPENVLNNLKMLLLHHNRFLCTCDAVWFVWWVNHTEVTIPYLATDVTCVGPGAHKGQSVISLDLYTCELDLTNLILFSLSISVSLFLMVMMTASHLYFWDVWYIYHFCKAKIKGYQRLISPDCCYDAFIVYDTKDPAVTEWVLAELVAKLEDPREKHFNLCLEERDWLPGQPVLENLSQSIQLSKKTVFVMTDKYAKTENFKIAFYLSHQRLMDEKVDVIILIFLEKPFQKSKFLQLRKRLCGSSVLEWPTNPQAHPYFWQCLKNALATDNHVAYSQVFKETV
The test is described as follows: Human TLR7 Assay (SEAP reporter).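 Further: SEAP driven by an NFkB-responsive composite promoter, pEC50 read at half of each compound's own maximal SEAP induction.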 It counts as cell-based. The following applies: HEK293 cell line stably expressing human TLR7 and pNiFty2-SEAP reporter; SEAP induction after overnight incubation at 37° C., 0.1% (v/v) DMSO.

Text: Recombinant human TLR7 was stably expressed in a HEK293 cell line already stably expressing the pNiFty2-SEAP reporter plasmid; integration of the reporter gene was maintained by selection with the antibiotic zeocin. The most common variant sequence of human TLR7 (represented by the EMBL sequence AF240467) was cloned into the mammalian cell expression vector pUNO and transfected into this reporter cell-line. Transfectants with stable expression were selected using the antibiotic blasticidin. In this reporter cell-line, expression of secreted alkaline phosphatase (SEAP) is controlled by an NFkB/ELAM-1 composite promoter comprising five NFkB sites combined with the proximal ELAM-1 promoter. TLR signaling leads to the translocation of NFkB and activation of the promoter results in expression of the SEAP gene. TLR7-specific activation was assessed by determining the level of SEAP produced following overnight incubation of the cells at 37° C. with the standard compound in the presence of 0.1% (v/v) dimethylsulfoxide (DMSO). Concentration dependent induction of SEAP production by compounds was expressed as the concentration of compound which produced half of the maximal level of SEAP induction for that compound (pEC50).

As to `CCCCCNc1nc(N)nc(C)c1Cc1ccc(CC(=O)OCC(C)(C)CN(C)C)cc1` [Example 55, 3-(Dimethylamino)-2,2-dimethylpropyl 2-(4-((2-amino-4-methyl-6-(pentylamino)pyrimidin-5-yl)methyl)phenyl)acetate], the pEC50 was 6.90.

`CCCCCNc1nc(N)nc(C)c1CCCN(Cc1cccc(CC(=O)OC)c1)C(=O)CCC(=O)OC` [Example 11, Methyl 4-((3-(2-amino-4-methyl-6-(pentylamino)pyrimidin-5-yl)propyl)(3-(2-methoxy-2-oxoethyl)benzyl)amino)-4-oxobutanoate]: the pEC50 was 6.00.

With `CCCCCNc1nc(N)nc(C)c1CCCN(Cc1cccc(CC(=O)OC)c1)S(C)(=O)=O` [Example 13, Methyl 2-(3-((N-(3-(2-amino-4-methyl-6-(pentylamino)pyrimidin-5-yl)propyl)methylsulfonamido)methyl)phenyl)acetate], the pEC50 was 5.60.

As for `CCCCCNc1nc(N)nc(C)c1Cc1ccc(CC(=O)OCCCN(C)C)cc1` [Example 37, 3-(Dimethylamino)propyl 2-(4-((2-amino-4-methyl-6-(pentylamino)pyrimidin-5-yl)methyl)phenyl)acetate], the pEC50 is 6.90.

For the compound `CCCCCNc1nc(N)nc(C)c1CCCNCc1cccc(OCC(=O)OC)c1` [Example 25, Methyl 2-(3-((3-(2-amino-4-methyl-6-(pentylamino)pyrimidin-5-yl)propylamino)methyl)phenoxy)acetate], the pEC50 is 6.10.

As to `CCCCNc1nc(N)nc(C)c1Cc1ccc(CC(=O)OCCCCN2CCCC2)cc1` [Example 82, 4-(Pyrrolidin-1-yl)butyl 2-(4-((2-amino-4-(butylamino)-6-methylpyrimidin-5-yl)methyl)phenyl)acetate], the pEC50 was 7.00.

As for `CCCCNc1nc(N)nc(C)c1Cc1ccc(CC(=O)OC)cc1` [Example 41, Methyl 2-(4-((2-amino-4-(butylamino)-6-methylpyrimidin-5-yl)methyl)phenyl)acetate], the pEC50 was 6.00.

Regarding `CCCCCNc1nc(N)nc(C)c1CCCN(Cc1cccc(CC(=O)OC)c1)S(=O)(=O)c1cn(C)cn1` [Example 14, Methyl 2-(3-((N-(3-(2-amino-4-methyl-6-(pentylamino)pyrimidin-5-yl)propyl)-1-methyl-1H-imidazole-4-sulfonamido)methyl)phenyl)acetate], the pEC50 was 5.90.

For the compound `CCCCCNc1nc(N)nc(C)c1Cc1ccc(CC(=O)OCCCCN2CCS(=O)(=O)CC2)cc1` [Example 64, 4-(1,1-Dioxidothiomorpholin-4-yl)butyl(4-{[2-amino-4-methyl-6-(pentylamino)pyrimidin-5-yl]methyl}phenyl)acetate], the pEC50 was 5.60.

On to `CCC[C@@H](CO)Nc1nc(N)nc(C)c1Cc1ccc(CC(=O)OC)cc1` [Example 43, (S)-Methyl 2-(4-((2-amino-4-(1-hydroxypentan-2-ylamino)-6-methylpyrimidin-5-yl)methyl)phenyl)acetate], for which the pEC50 was 6.10.

For the compound `CCCC[C@@H](CO)Nc1nc(N)nc(C)c1Cc1ccc(CC(=O)OC)cc1OC` [Example 32, (S)-Methyl 2-(4-((2-amino-4-(1-hydroxyhexan-2-ylamino)-6-methylpyrimidin-5-yl)methyl)-3-methoxyphenyl)acetate], the pEC50 is 7.30.

With `CCCCCNc1nc(N)nc(C)c1CCCN(Cc1ccc(CC(=O)OC)cc1)C(=O)CSC` [Example 52, Methyl 2-(4-((N-(3-(2-amino-4-methyl-6-(pentylamino)pyrimidin-5-yl)propyl)-2-(methylthio)acetamido)methyl)phenyl)acetate], the pEC50 is 6.20.

Turning to `CCCCCNc1nc(N)nc(C)c1CCCN(Cc1cccc(CC(=O)OC)c1)C(=O)CN1CCCN(C(C)=O)CC1` [Example 8, Methyl 2-(3-((2-(4-acetyl-1,4-diazepan-1-yl)-N-(3-(2-amino-4-methyl-6-(pentylamino)pyrimidin-5-yl)propyl)acetamido)methyl)phenyl)acetate], the pEC50 is 5.60.

For the compound `CCCCCNc1nc(N)nc(C)c1Cc1cc(CC(=O)OC)ccc1O` [Example 39, Methyl 2-(3-((2-amino-4-methyl-6-(pentylamino)pyrimidin-5-yl)methyl)-4-hydroxyphenyl)acetate], the pEC50 is 7.00.

`CCC[C@@H](CCO)Nc1nc(N)nc(C)c1Cc1ccc(CC(=O)OC)cc1O` [Example 75, (S)-Methyl 2-(4-((2-amino-4-(1-hydroxyhexan-3-ylamino)-6-methylpyrimidin-5-yl)methyl)-3-hydroxyphenyl)acetate]: the pEC50 is 8.20.

With `CCCCNc1nc(N)nc(C)c1Sc1ccc(CC(=O)OCC2CCN(C)CC2)cc1` [Example 95, (1-Methylpiperidin-4-yl)methyl 2-(4-(2-amino-4-(butylamino)-6-methylpyrimidin-5-ylthio)phenyl)acetate], the pEC50 was 7.20.

In the case of `CCC[C@@H](CO)Nc1nc(N)nc(C)c1Cc1ccc(CC(=O)OC)cc1OC` [Example 30, (S)-Methyl 2-(4-((2-amino-4-(1-hydroxypentan-2-ylamino)-6-methylpyrimidin-5-yl)methyl)-3-methoxyphenyl)acetate], the pEC50 was 7.50.

Turning to `CCCCNc1nc(N)nc(C)c1Cc1ccc(CC(=O)OCCCS(C)(=O)=O)cc1OC` [Example 92, 3-(Methylsulfonyl)propyl 2-(4-((2-amino-4-(butylamino)-6-methylpyrimidin-5-yl)methyl)-3-methoxyphenyl)acetate], the pEC50 is 7.70.

For `CCCCCNc1nc(N)nc(C)c1CCCN(Cc1cccc(CC(=O)OC)c1)C(=O)CN1CCC(O)CC1` [Example 7, Methyl 2-(3-((N-(3-(2-amino-4-methyl-6-(pentylamino)pyrimidin-5-yl)propyl)-2-(4-hydroxypiperidin-1-yl)acetamido)methyl)phenyl)acetate], the pEC50 was 5.60.

`CCCCCNc1nc(N)nc(C)c1CCCN(Cc1ccc(CC(=O)OC)cc1)C(=O)CN1CCCC(c2ccc(S(C)(=O)=O)cc2)C1` (stereo not drawn) [Example 26, Methyl 2-(4-((N-(3-(2-amino-4-methyl-6-(pentylamino)pyrimidin-5-yl)propyl)-2-(3-(4-(methylsulfonyl)phenyl)piperidin-1-yl)acetamido)methyl)phenyl)acetate]: the pEC50 is 6.10.

For the compound `CCCCNc1nc(N)nc(C)c1Cc1ccc(CC(=O)OCCc2scnc2C)cc1OC` [Example 101, 2-(4-Methylthiazol-5-yl)ethyl 2-(4-((2-amino-4-(butylamino)-6-methylpyrimidin-5-yl)methyl)-3-methoxyphenyl)acetate], the pEC50 was 7.40.

For `CCCCCNc1nc(N)nc(C)c1Cc1ccc(CC(=O)OCCCN2CCOCC2)cc1` [Example 58, 3-Morpholinopropyl 2-(4-((2-amino-4-methyl-6-(pentylamino)pyrimidin-5-yl)methyl)phenyl)acetate], the pEC50 is 6.90.

Consider `CC[C@H](O)CNc1nc(N)nc(C)c1Cc1ccc(CC(=O)OC)cc1OC` [Example 53, (S)-Methyl 2-(4-((2-amino-4-(2-hydroxybutylamino)-6-methylpyrimidin-5-yl)methyl)-3-methoxyphenyl)acetate], for which the pEC50 is 7.40.

In the case of `CCCCCNc1nc(N)nc(C)c1CCCN(Cc1ccc(CC(=O)OC)cc1)C(=O)C1CCN(C)CC1` [Example 51, Methyl 2-(4-((N-(3-(2-amino-4-methyl-6-(pentylamino)pyrimidin-5-yl)propyl)-1-methylpiperidine-4-carboxamido)methyl)phenyl)acetate], the pEC50 was 6.10.
